Measurements reported in patent publication EP3789378A1, “PIPERIDINES OR PIPERIDONES SUBSTITUTED WITH UREA AND HETEROARYL” (Grünenthal GmbH, priority 2019, dated 2021).
pEC50: −log10 of the molar value.

What follows are molecules tested against T1, h FPR2 (Homo sapiens, UniProt P25090) (assay: Agonistic activity in hFPR2-Aq-CHO cells (FLIPR Calcium 5 fluorescence assay)). Settings: 11 point half log dilution, final assay concentration from 10µM.
T1 construct: expressed in transfected cells
T1 sequence (P25090 1-351): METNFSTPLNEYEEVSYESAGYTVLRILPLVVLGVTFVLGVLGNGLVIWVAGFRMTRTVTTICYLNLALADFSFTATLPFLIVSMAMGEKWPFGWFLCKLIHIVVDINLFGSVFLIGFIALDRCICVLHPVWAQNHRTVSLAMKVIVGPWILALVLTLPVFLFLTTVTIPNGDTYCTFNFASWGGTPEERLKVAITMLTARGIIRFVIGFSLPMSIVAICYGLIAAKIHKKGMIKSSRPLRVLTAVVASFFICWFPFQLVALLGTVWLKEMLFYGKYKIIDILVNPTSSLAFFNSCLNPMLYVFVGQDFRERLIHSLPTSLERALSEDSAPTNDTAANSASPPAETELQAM
Type: cell-based
Experimental: After washing, the cells are plated at 10,000 cells per well in 40 µL complete medium in a 384-well sterile clear bottom black plate and incubated in a 5% CO2 incubator at 37°C for 18 hours. Plating media is removed from each well by decanting and gentle tapping before 30 µL of 0.5X Calcium 5 dye solution (0.5X FLIPR Calcium 5 dye (Molecular devices, R8186)); HBSS; 20mM HEPES; 2.5mM Probenecid; 0.025% Pluronic F-127; pH adjusted to 7.4) is added to each well and the plate is then incubated at 37°C for 30 minutes. For the assay the plate is equilibrated at room temperature for 10 minutes before placing it in the FLIPR. Compounds are dissolved in DMSO and serially diluted over an 11 point half log (3.16 fold) dilution (2 mM to 20 nM). Compounds are then diluted 1:50 in assay buffer (HBSS; 20mM HEPES; 2.5mM Probenecid; 0.05% gelatin; 0.1% BSA; pH adjusted to 7.4) just before performing the assay. Compounds are finally added to the respective wells of the cell plate (final assay concentration 10 µM to 100 pM) using the FLIPR (e.g. FLIPR-Tetra, Molecular Devices) and fluorescence readings are captured for 5 minutes. The increase in fluorescence from the basal reading in the presence of the compounds is compared with that of the control wells (wells having no compound) to calculate the activity of the compounds. The EC50 values of the compounds can be determined using e.g. Graph pad Prism software.
Assay method for measuring agonistic activity of compounds in hFPR2-Aq-CHO cell
Cryo-vial containing 6x10^6 cells (hFPR1-Gα15-CHO or hFPR2-Aq-CHO) was thawed in a 37°C water bath. Cells were suspended in 10ml of respective complete growth media (F12(1X)HAM media (Gibco; Cat#11765); 10% HI-FBS (Gibco; Cat#10082); 0.4 mg/ml Geneticin (Gibco; Cat#10131); 0.25 mg/ml Zeocin (Invitrogen; Cat#R25001)) in a 15ml centrifuge tube. The cell viability was checked with the help of Trypan Blue dye. Upon washing the cells, those were plated in a 384-well sterile clear bottom black plate (Greiner Bioone Cat# 781091) so that, each well contained 10,000 cells in 40µl complete growth media. The plate was incubated in a 5% CO2 incubator at 37°C for 18 hours. Before assay on the next day, the cell plating media was removed from each well of the plate by decanting and gentle tapping. 30µl of 0.5X Calcium 5 dye solution (0.5X FLIPR Calcium 5 dye (Molecular devices Cat# R8186); HBSS (Invitrogen; Cat#14025); 20mM HEPES (Sigma; Cat#H0887); 2.5mM Probenecid (Sigma; Cat#P8761); 0.025% Pluronic F-127 (Sigma; Cat#P2443); pH adjusted to 7.4) was added to each well. The plate was then incubated at 37°C for 30 minutes. Following which the plate was equilibrated at room temperature for 10 minutes before placing it in a 384 well FLIPR for assay. Compounds were dissolved in DMSO and serially diluted following 11 point half log (3.16 fold) dilution with a starting concentration of 2mM (Final assay concentration 10µM). Aliquots of above mentioned each dilution was mixed with assay buffer (HBSS (Invitrogen; Cat#14025); 20mM HEPES (Sigma; Cat#H0887); 2.5mM Probenecid (Sigma; Cat#P8761); 0.05% gelatin (Sigma; Cat#G1890); 0.1% BSA (Sigma; Cat#A3059); pH adjusted to 7.4) just before performing the assay. Compounds were added to the respective wells of the assay ready cell plate with the help of the FLIPR (FLIPR Tetra) and fluorescence readings were captured for 5 minutes to measure any agonistic response of the compounds. The increase in fluorescence readings from the basal reading in presence of the compounds were compared with that of the control wells (wells having no compound) to calculate the agonistic activity of the compounds. The EC50 values of the compounds were determined using the Graph pad Prism software.

Compared with `COCCCN1CC[C@@H](NC(=O)Nc2ccc(Cl)cc2)[C@H](c2ccc(OC)cn2)C1` (racemic) [Ex-80, trans-1-(4-chloro-phenyl)-3-[5-methoxy-1'-(3-methoxy-propyl)-1',2',3',4',5',6'-hexahydro-[2,3']bipyridinyl-4'-yl]-urea], `COc1ccc([C@@H]2CN(C(=O)CN(C)C)CC[C@H]2NC(=O)Nc2ccc(Cl)cc2)nc1` (racemic) [Ex-94, trans-1-(4-chloro-phenyl)-3-[1'-(2-dimethylamino-acetyl)-5-methoxy-1',2',3',4',5',6'-hexahydro-[2,3']bipyridinyl-4'-yl]-urea] is 0.35 log units lower in pEC50: 9.05 for the first, 8.70 for the second. The first is the more potent here.

First: COc1ccc([C@@H]2CN(C(=O)C3CCN(C)CC3)CC[C@H]2NC(=O)Nc2ccc(Cl)cc2)nc1 (racemic) [Ex-89, trans-1-(4-chloro-phenyl)-3-[5-methoxy-1'-(1-methyl-piperidine-4-carbonyl)-1',2',3',4',5',6'-hexahydro-[2,3']bipyridinyl-4'-yl]-urea]
Second: COc1ccc([C@@H]2CN(C(=O)C3CNC3)CC[C@H]2NC(=O)Nc2ccccc2)nc1 (racemic) [Ex-165, trans-1-[1-(Azetidine-3-carbonyl)-3-(5-methoxy-pyridin-2-yl)-piperidin-4-yl]-3-phenyl-urea]
The pEC50 of the first is 0.74 log units higher: 8.70 for the first, 7.96 for the second.

`COc1ccc([C@@H]2CN(CC(F)F)CC[C@H]2NC(=O)Nc2ccc(C#N)cc2)nc1` (racemic) [Ex-113, trans-1-(4-cyanophenyl)-3-[1-(2,2-difluoroethyl)-3-(5-methoxy-2-pyridyl)-4-piperidyl]urea] and `COc1ccc([C@@H]2CN(c3ccc(F)cc3)CC[C@H]2NC(=O)Nc2ccc(Cl)cc2)nc1` (relative stereo) [Ex-18, trans-1-(4-chloro-phenyl)-3-[1'-(4-fluoro-phenyl)-5-methoxy-1',2',3',4',5',6'-hexahydro-[2,3']bipyridinyl-4'-yl]-urea] are within 0.2 log units of each other in pEC50: 8.92 for the first, 9.10 for the second.

Going from `COc1ccc([C@@H]2CN(c3ccncn3)CC[C@H]2NC(=O)Nc2ccc(Cl)cc2)cn1` (relative stereo) [Ex-1, trans-1-(4-chloro-phenyl)-3-(6'-methoxy-1-pyrimidin-4-yl-1,2,3,4,5,6-hexahydro-[3,3']bipyridinyl-4-yl)-urea] to `COc1ccc([C@@H]2CN(c3ccncn3)CC[C@H]2NC(=O)Nc2ccc(Cl)cc2)nc1` (relative stereo) [Ex-7, trans-1-(4-chloro-phenyl)-3-(5-methoxy-1'-pyrimidin-4-yl-1',2',3',4',5',6'-hexahydro-[2,3']bipyridinyl-4'-yl)-urea], the pEC50 rises from 8.22 to 9.40 (1.18 log units).

First: COc1ccc([C@@H]2CN(c3ccc(F)cc3)CC[C@H]2NC(=O)Nc2ccc(Cl)cc2)cn1 (relative stereo) [Ex-2, trans-1-(4-chloro-phenyl)-3-[1-(4-fluoro-phenyl)-6'-methoxy-1,2,3,4,5,6-hexahydro-[3,3']bipyridinyl-4-yl]-urea]
Second: COc1ccc([C@@H]2CN(c3ccc(F)cc3)C(=O)C[C@H]2NC(=O)Nc2ccc(Cl)cc2)cn1 (relative stereo) [Ex-5, trans-1-(4-chlorophenyl)-3-[-1-(4-fluorophenyl)-5-(6-methoxypyridin-3-yl)-2-oxopiperidin-4-yl]urea]
The pEC50 of the first is 1.84 log units lower: 7.96 for the first, 9.80 for the second.

`COc1ccc([C@@H]2CN(c3ccc(F)cc3)CC[C@H]2NC(=O)Nc2cc(C)ns2)cn1` (relative stereo) [Ex-3, trans-1-[1-(4-fluoro-phenyl)-6'-methoxy-1,2,3,4,5,6-hexahydro-[3,3']bipyridinyl-4-yl]-3-(3-methyl-isothiazol-5-yl)-urea] and `COc1ccc([C@@H]2CN(c3ccncn3)CC[C@H]2NC(=O)Nc2cc(C)ns2)cn1` (relative stereo) [Ex-4, trans-1-(6'-methoxy-1-pyrimidin-4-yl-1,2,3,4,5,6-hexahydro-[3,3']bipyridinyl-4-yl)-3-(3-methyl-isothiazol-5-yl)-urea] are within 0.2 log units of each other in pEC50: 8.00 for the first, 7.96 for the second.

Compared with `COc1ccc([C@H]2CN(c3ccc(F)cc3)C(=O)C[C@H]2NC(=O)Nc2ccc(Cl)cc2)cn1` (relative stereo) [Ex-6, cis-1-(4-chlorophenyl)-3-[1-(4-fluorophenyl)-5-(6-methoxypyridin-3-yl)-2-oxopiperidin-4-yl]urea], `COc1ccc([C@@H]2CN(c3ccc(F)cc3)C(=O)C[C@H]2NC(=O)Nc2ccc(Cl)cc2)nc1` (relative stereo) [Ex-10, trans-1-(4-chlorophenyl)-3-[1-(4-fluorophenyl)-5-(5-methoxypyridin-2-yl)-2-oxopiperidin-4-yl]urea] is 2.08 log units higher in pEC50: 8.22 for the first, 10.30 for the second.

Compared with `COc1ccc([C@@H]2CN(c3ccncn3)CC[C@H]2NC(=O)Nc2cc(C)ns2)nc1` (relative stereo) [Ex-8, trans-1-(5-methoxy-1'-pyrimidin-4-yl-1',2',3',4',5',6'-hexahydro-[2,3']bipyridinyl-4'-yl)-3-(3-methyl-isothiazol-5-yl)-urea], `Cc1cc(NC(=O)N[C@@H]2CCN(c3ccncn3)C[C@H]2c2ccc(Cl)cn2)sn1` (relative stereo) [Ex-13, trans-1-(5-chloro-1'-pyrimidin-4-yl-1',2',3',4',5',6'-hexahydro-[2,3']bipyridinyl-4'-yl)-3-(3-methyl-isothiazol-5-yl)-urea] is 0.30 log units lower in pEC50: 9.00 for the first, 8.70 for the second.

Compared with `O=C(Nc1ccc(Cl)cc1)N[C@@H]1CCN(c2ccncn2)C[C@H]1c1ccc(Cl)cn1` (relative stereo) [Ex-9, trans-1-(4-chloro-phenyl)-3-(5-chloro-1'-pyrimidin-4-yl-1',2',3',4',5',6'-hexahydro-[2,3']bipyridinyl-4'-yl)-urea], `O=C(Nc1ccc(Cl)cc1)N[C@@H]1CCN(c2ccc(F)cc2)C[C@H]1c1ccc(Cl)cn1` (relative stereo) [Ex-12, trans-1-[5-chloro-1'-(4-fluoro-phenyl)-1',2',3',4',5',6'-hexahydro-[2,3']bipyridinyl-4'-yl]-3-(4-chlorophenyl)-urea] is 0.65 log units lower in pEC50: 8.70 for the first, 8.05 for the second.

Compared with `COc1ccc([C@H]2CN(c3ccc(F)cc3)C(=O)C[C@H]2NC(=O)Nc2ccc(Cl)cc2)nc1` (relative stereo) [Ex-11, cis-1-(4-chlorophenyl)-3-[1-(4-fluorophenyl)-5-(5-methoxypyridin-2-yl)-2-oxopiperidin-4-yl]urea], `O=C(Nc1ccc(Cl)cc1)N[C@@H]1CC(=O)N(c2ccc(F)cc2)C[C@H]1c1ccc(Cl)cn1` (relative stereo) [Ex-14, trans-1-(4-chlorophenyl)-3-[5-(5-chloropyridin-2-yl)-1-(4-fluorophenyl)-2-oxopiperidin-4-yl]urea] is 1.18 log units higher in pEC50: 8.22 for the first, 9.40 for the second.

Same assay, conditions: agonistic response at 0.1µM

For `Cc1cc(NC(=O)N[C@@H]2CCN(c3ccncn3)C[C@H]2c2ccc(Cl)cn2)sn1` (relative stereo) [Ex-17, trans-1-(5-chloro-1'-pyrimidin-4-yl-1',2',3',4',5',6'-hexahydro-[2,3']bipyridinyl-4'-yl)-3-(3-methyl-isothiazol-5-yl)-urea], the activation at 0.1 µM was 30%.
